From ChEMBL document CHEMBL5518226, “A Vancomycin-Templated DNA-Encoded Library for Combating Drug-Resistant Bacteria” (2024)
In brackets after ≈: the same amount, converted by molar mass. Activity calls are given as the source filed them. The calls are words filed in the database; no cut-off is given here.

What was measured:
Staphylococcus aureus [1] = assay: Antibacterial activity against linezolid resistant Staphylococcus aureus clinical isolate 20-1 assessed as inhibition of bacterial growth incubated for 24 hrs by CLSI protocol based broth microdilution method; format: functional
Streptococcus pneumoniae [2] = assay: Antibacterial activity against Streptococcus pneumoniae ATCC49619 assessed as inhibition of bacterial growth incubated for 24 hrs by CLSI protocol based broth microdilution method; format: functional
[3] = tested on: Staphylococcus epidermidis; assay: Antibacterial activity against methicillin resistant Staphylococcus epidermidis clinical isolate 20-1 assessed as inhibition of bacterial growth incubated for 24 hrs by CLSI protocol based broth microdilution method; format: functional
Enterococcus faecalis [4] = assay: Antibacterial activity against vancomycin resistant Enterococcus faecalis clinical isolate 20-1 assessed as inhibition of bacterial growth incubated for 24 hrs by CLSI protocol based broth microdilution method; format: functional
Enterococcus faecium [5] = assay: Antibacterial activity against Enterococcus faecium clinical isolate 20-15 assessed as inhibition of bacterial growth incubated for 24 hrs by CLSI protocol based broth microdilution method; format: functional
Streptococcus pneumoniae [6] = assay: Antibacterial activity against penicillin susceptible Streptococcus pneumoniae clinical isolate 20-1 assessed as inhibition of bacterial growth incubated for 24 hrs by CLSI protocol based broth microdilution method; format: functional
Staphylococcus aureus [7] = assay: Antibacterial activity against methicillin resistant Staphylococcus aureus clinical isolate 20-34 assessed as inhibition of bacterial growth incubated for 24 hrs by CLSI protocol based broth microdilution method; format: functional
Staphylococcus aureus [8] = assay: Antibacterial activity against methicillin sensitive Staphylococcus aureus ATCC29213 assessed as inhibition of bacterial growth incubated for 24 hrs by CLSI protocol based broth microdilution method; format: functional
Staphylococcus aureus [9] = assay: Antibacterial activity against vancomycin-intermediate resistant Staphylococcus aureus ATCC700699 assessed as inhibition of bacterial growth incubated for 24 hrs by CLSI protocol based broth microdilution method; format: functional
Staphylococcus aureus [10] = assay: Antibacterial activity against methicillin sensitive Staphylococcus aureus clinical isolate 20-45 assessed as inhibition of bacterial growth incubated for 24 hrs by CLSI protocol based broth microdilution method; format: functional
Enterococcus faecium [11] = assay: Antibacterial activity against vancomycin-resistant Enterococcus faecium 0649 assessed as reduction in bacterial growth by measuring fold change at 0.0625 to 64 ug/ml incubated for 24 hrs by CLSI protocol based broth microdilution method relative to vancomycin; format: functional; details: dose 0.0625-64 µg/ml
Staphylococcus aureus [12] = assay: Antibacterial activity against methicillin resistant Staphylococcus aureus USA300 assessed as inhibition of bacterial growth incubated for 24 hrs by CLSI protocol based broth microdilution method; format: functional
Enterococcus faecium [13] = assay: Antibacterial activity against Enterococcus faecium clinical isolate 20-16 assessed as inhibition of bacterial growth incubated for 24 hrs by CLSI protocol based broth microdilution method; format: functional
Staphylococcus aureus [14] = assay: Antibacterial activity against methicillin sensitive Staphylococcus aureus Newman assessed as inhibition of bacterial growth incubated for 24 hrs by CLSI protocol based broth microdilution method; format: functional
Staphylococcus aureus [15] = assay: Antibacterial activity against vancomycin-intermediate resistant Staphylococcus aureus Mu50 assessed as reduction in bacterial growth by measuring fold change at 0.0625 to 64 ug/ml incubated for 24 hrs by CLSI protocol based broth microdilution method relative to vancomycin; format: functional; details: dose 0.0625-64 µg/ml
[16] = tested on: Staphylococcus epidermidis; assay: Antibacterial activity against methicillin sensitive Staphylococcus epidermidis clinical isolate 20-1 assessed as inhibition of bacterial growth incubated for 24 hrs by CLSI protocol based broth microdilution method; format: functional
Enterococcus faecalis [17] = assay: Antibacterial activity against Enterococcus faecalis clinical isolate 20-11 assessed as inhibition of bacterial growth incubated for 24 hrs by CLSI protocol based broth microdilution method; format: functional
Staphylococcus aureus [18] = assay: Antibacterial activity against vancomycin-intermediate resistant Staphylococcus aureus Mu50 assessed as reduction in bacterial survival at 0.1 mg/ml; format: functional, organism-based
Staphylococcus aureus [19] = assay: Antibacterial activity against vancomycin-intermediate resistant Staphylococcus aureus Mu50 assessed as reduction in bacterial survival at 0.25 to 3 mg/ml; format: functional, organism-based; details: dose 0.25-3 mg/ml
Streptococcus pneumoniae [20] = assay: Antibacterial activity against penicillin resistant Streptococcus pneumoniae clinical isolate 20-1 assessed as inhibition of bacterial growth incubated for 24 hrs by CLSI protocol based broth microdilution method; format: functional
Enterococcus faecium [21] = assay: Antibacterial activity against vancomycin-resistant Enterococcus faecium 0649 assessed as reduction in bacterial survival at 3 mg/ml; format: functional, organism-based
Staphylococcus aureus [22] = assay: Antibacterial activity against vancomycin-intermediate resistant Staphylococcus aureus Mu50 assessed as reduction in fluorescence at 10 uM incubated for 1 hrs by fluorescence microscopic analysis; format: functional, organism-based

| Structure (SMILES) | MIC (Staphylococcus aureus [1]) | MIC (Streptococcus pneumoniae [2]) | MIC [3] | MIC (Enterococcus faecalis [4]) | MIC (Enterococcus faecium [5]) | MIC (Streptococcus pneumoniae [6]) | MIC (Staphylococcus aureus [7]) | MIC (Staphylococcus aureus [8]) | MIC (Staphylococcus aureus [9]) | MIC (Staphylococcus aureus [10]) | fold change (FC) (Enterococcus faecium [11]) | MIC (Staphylococcus aureus [12]) | MIC (Enterococcus faecium [13]) | MIC (Staphylococcus aureus [14]) | fold change (FC) (Staphylococcus aureus [15]) | MIC [16] | MIC (Enterococcus faecalis [17]) | other results |
| --- | --- | --- | --- | --- | --- | --- | --- | --- | --- | --- | --- | --- | --- | --- | --- | --- | --- | --- |
| CN[C@H](CC(C)C)C(=O)N[C@H]1C(=O)N[C@@H](CC(N)=O)C(=O)N[C@H]2C(=O)N[C@H]3C(=O)N[C@H](C(=O)N[C@H](C(=O)NCCCc4cn(Cc5ccc(Cl)c(Cl)c5)nn4)c4cc(O)cc(O)c4-c4cc3ccc4O)[C@H](O)c3ccc(c(Cl)c3)Oc3cc2cc(c3O[C@@H]2O[C@H](CO)[C@@H](O)[C@H](O)[C@H]2O[C@H]2C[C@](C)(N)[C@H](O)[C@H](C)O2)Oc2ccc(cc2Cl)[C@H]1O | 0.125 µg/mL (≈ 0.0728 µM) | ≤ 0.015 µg/mL | 0.25 µg/mL (≈ 0.146 µM) | 16 µg/mL (≈ 9.32 µM) | ≤ 0.015 µg/mL | ≤ 0.015 µg/mL | 0.125 µg/mL (≈ 0.0728 µM) | 0.125 µg/mL (≈ 0.0728 µM) | 2 µg/mL (≈ 1.17 µM) | 0.125 µg/mL (≈ 0.0728 µM) | 8 | ≤ 0.015 µg/mL | 0.06 µg/mL (≈ 0.035 µM) | 0.03 µg/mL (≈ 0.0175 µM) | 8 | 0.25 µg/mL (≈ 0.146 µM) | 0.03 µg/mL (≈ 0.0175 µM) | – |
| CN[C@H](CC(C)C)C(=O)N[C@H]1C(=O)N[C@@H](CC(N)=O)C(=O)N[C@H]2C(=O)N[C@H]3C(=O)N[C@H](C(=O)N[C@H](C(=O)O)c4cc(O)cc(O)c4-c4cc3ccc4O)[C@H](O)c3ccc(c(Cl)c3)Oc3cc2cc(c3O[C@@H]2O[C@H](CO)[C@@H](O)[C@H](O)[C@H]2O[C@H]2C[C@](C)(N)[C@H](O)[C@H](C)O2)Oc2ccc(cc2Cl)[C@H]1O [VANCOMYCIN] | – | 0.5 µg/mL (≈ 0.345 µM) | – | > 64 µg/mL | – | 0.25 µg/mL (≈ 0.173 µM) | – | – | – | – | – | – | – | – | – | – | 1 µg/mL (≈ 0.69 µM) | Activity (Staphylococcus aureus [18]): inactive; Activity (Staphylococcus aureus [19]): Active; MIC (Streptococcus pneumoniae [20]): 0.25 µg/mL (≈ 0.173 µM); Activity (Enterococcus faecium [21]): inactive |
| CC(C)C[C@H](C(=O)N[C@H]1C(=O)N[C@@H](CC(N)=O)C(=O)N[C@H]2C(=O)N[C@H]3C(=O)N[C@H](C(=O)N[C@H](C(=O)O)c4cc(O)cc(O)c4-c4cc3ccc4O)[C@H](O)c3ccc(c(Cl)c3)Oc3cc2cc(c3O[C@@H]2O[C@H](CO)[C@@H](O)[C@H](O)[C@H]2O[C@H]2C[C@](C)(N)[C@H](O)[C@H](C)O2)Oc2ccc(cc2Cl)[C@H]1O)N(C)C(=S)Nc1ccc2c(c1)C(=O)OC21c2ccc(O)cc2Oc2cc(O)ccc21 | – | – | – | – | – | – | – | – | – | – | – | – | – | – | – | – | – | Activity (Staphylococcus aureus [22]): inactive |
| CN[C@H](CC(C)C)C(=O)N[C@H]1C(=O)N[C@@H](CC(N)=O)C(=O)N[C@H]2C(=O)N[C@H]3C(=O)N[C@H](C(=O)N[C@H](C(=O)NCCCc4cn(-c5ccc(OC(F)F)cc5)nn4)c4cc(O)cc(O)c4-c4cc3ccc4O)[C@H](O)c3ccc(c(Cl)c3)Oc3cc2cc(c3O[C@@H]2O[C@H](CO)[C@@H](O)[C@H](O)[C@H]2O[C@H]2C[C@](C)(N)[C@H](O)[C@H](C)O2)Oc2ccc(cc2Cl)[C@H]1O | – | ≤ 0.015 µg/mL | 0.25 µg/mL (≈ 0.147 µM) | 16 µg/mL (≈ 9.41 µM) | ≤ 0.015 µg/mL | ≤ 0.015 µg/mL | 0.06 µg/mL (≈ 0.0353 µM) | ≤ 0.015 µg/mL | 1 µg/mL (≈ 0.588 µM) | ≤ 0.015 µg/mL | 8 | 0.06 µg/mL (≈ 0.0353 µM) | 0.125 µg/mL (≈ 0.0736 µM) | 0.125 µg/mL (≈ 0.0736 µM) | 8 | 0.25 µg/mL (≈ 0.147 µM) | ≤ 0.015 µg/mL | – |
| C[C@H]1COc2c(N3CCN(C)CC3)c(F)cc3c(=O)c(C(=O)O)cn1c23 [LEVOFLOXACIN ANHYDROUS] | 16 µg/mL (≈ 44.3 µM) | – | 4 µg/mL (≈ 11.1 µM) | 64 µg/mL (≈ 177 µM) | > 64 µg/mL | – | 16 µg/mL (≈ 44.3 µM) | 0.125 µg/mL (≈ 0.346 µM) | 8 µg/mL (≈ 22.1 µM) | 0.25 µg/mL (≈ 0.692 µM) | – | – | 64 µg/mL (≈ 177 µM) | – | – | 4 µg/mL (≈ 11.1 µM) | 1 µg/mL (≈ 2.77 µM) | – |
